Our source for the inhibition in vivo values is patent US11891386B2, “Indole compounds and their use” (ARIAGEN, INC., priority 2017, dated 2024).

For the experiment, the system named is EMT-6 syngeneic mouse tumor model (breast cancer). Put plainly: Anti-tumor activity, EMT-6 syngeneic mouse tumor model. Format: in vivo. The settings on record: EMT6, 648 h, Study 2, EMT-6, 160 mpk, D27, read-out: TGI (tumor growth inhibition).

Regarding `COC(=O)c1csc(C(=O)c2c[nH]c3ccccc23)n1` [ARI-001, ITE], the inhibition in vivo at 160 mg/kg is 75.1%.
